Where “and” joins values, the source holds several entries; their conditions need not be identical. Equal entries are not always repeated.
System: HIV-1
Assay: HIV transcription as cell-associated unspliced HIV-1 RNA in CD4+ T cells (digital droplet PCR), REDUC Part A
Type: in vivo, human
Conditions: for CA US HIV RNA: individual subjects 1101, 1102, 1103, 1105, 1106, 1107 = c1-c6; for CA US HIV RNA / CA US HIV RNA, Mean: romidepsin 5 mg/m^2 i.v. days 0, 7, 14; for CA US HIV RNA, Mean: mean of subjects
Description: Part A of the clinical study contained three phases. […] Second, a viral reactivation phase of 3 weeks (visit 2 to visit 7) consisting of one cycle of romidepsin infusions at a dosing of 5 mg/m^2 administered intravenously over a 4 hour period. De-escalation down to 2.5 mg/m^2 was planned in case of dose-limiting toxicity was observed. Romidepsin was infused on days 0, 7, and 14. Third, a post-activation phase of ˜9 weeks (visit 8 to visit 11) to assess the effect of romidepsin on the size of latent HIV-1I reservoir.
HIV transcription was measured as copies of cell-associated unspliced HIV-1 RNA/106 CD4+ T cells using digital droplet PCR. CD4+ T-cells were isolated from PBMCs using Miltenyi Biotec negative bead separation kit (CD4 T cell isolation, #130-096-533) as described with LD separation columns, lysed (Lysis buffer from Qiagen DNA/RNA extraction kit), and stored ad −80° C. until extraction of RNA and DNA (Allprep isolation kit, Qiagen). Reverse transcription, amplification and quantitation of cell-associated unspliced HIV RNA from HIV patients was performed as follows. In summary, HIV unspliced RNA was detected on the BioRad QX100 droplet digital platform using a defined primer/probe set and related to total cell input by quantitation of the IPO8 (Importin 8) and TBP (Tata Binding Protein) gene transcription. A mixture of 11.5 μl patient extracted mRNA in nuclease-free dH, 1 μl 10 mM dNTP U1240 (Promega), 0.5 μl 3 μg/μl Random hexamers (Applied Biosystems) and 0.5 μl of 0.5 μg/μl Oligo(dT)12-18 Primer (Invitrogen) was prepared, incubated at 65° C. for 5 min, and then immediately on ice for 5 min. First-strand cDNA production was performed by adding a mixture of 4.0 μl 5× First Strand Buffer (Invitrogen), 1.0 μl 0.1M DTT (Invitrogen), 0.5 μl RNAseOUT RNAse inhibitor (40 U/μl, Invitrogen), 1.0 μl Superscript III Reverse Transcriptase (200 U/μl, Invitrogen) for a total reaction volume of 20 μl and incubating at 42° C. for 45 min, then 80° C. for 15 min in a PCR machine. The reaction was held at 4° C. or on ice until performing the downstream assay. […] To adjust for the total cellular input in each sample, relative copy numbers were normalized to two human endogenous control genes TBP PL (VIC) assay ID: Hs00183533_m1 and IPO8 (FAM) assay ID: Hs00427620_m1 (TaqMan gene expression assay, LifeTechnologies, Denmark). All HIV RT samples were run in six replicates while the reference genes were assayed in duplicate. The PCR reaction mixture was loaded into the BioRad QX-100 emulsification device fractionating each sample into 20,000 nanoliter-sized droplets following the manufacturer's instructions. PCR cycling conditions were as follows: 95° C. for 10 min, followed by 40 cycles of a 30 second denaturation at 95° C. followed by a 59° C. extension for 60 seconds and a final 10 minutes at 98° C. After cycling droplets were subsequently read automatically by the QX100 droplet reader (BioRad) and the data was analyzed with the QuantaSoft™ analysis software (BioRad).

[1] = visit 1 (day −21, pre-treatment)
[2] = visit 2A (day 0, pre-treatment)

C/C=C1\NC(=O)[C@H]2CSSCC/C=C/[C@H](CC(=O)N[C@H](C(C)C)C(=O)N2)OC(=O)[C@H](C(C)C)NC1=O [romidepsin, (1S,4S,7Z,10S,16E,21R)-7-ethylidene-4,21-bis(1-methylethyl)-2-oxa-12,13-dithia-5,8,20,23-tetraazabicyclo[8.7.6]tricos-16-ene-3,6,9,19,22-pentone]
HIV reactivation (5 mg/m^2 romidepsin, patients on cART): successfully able to reactivate HIV in 6 patients | HIV-1 transcription (cell-associated un-spliced HIV-1 RNA), fold range increase from baseline (after third infusion, p=0.03, Wilcoxon): 2.4-5.0 fold | cell-associated un-spliced HIV RNA, change (as a result of romidepsin infusion): significantly increased | CA US HIV RNA [1]: 5.4 HIV RNA copies/10^6 CD4+ T cel and 19.7 HIV RNA copies/10^6 CD4+ T cel and 9.7 HIV RNA copies/10^6 CD4+ T cel and 4.8 HIV RNA copies/10^6 CD4+ T cel and 15.9 HIV RNA copies/10^6 CD4+ T cel and 8.7 HIV RNA copies/10^6 CD4+ T cel | CA US HIV RNA, Mean [1]: 10.7 HIV RNA copies/10^6 CD4+ T cel | CA US HIV RNA [2]: 13.3 HIV RNA copies/10^6 CD4+ T cel and 16.8 HIV RNA copies/10^6 CD4+ T cel and 7.4 HIV RNA copies/10^6 CD4+ T cel and 14.5 HIV RNA copies/10^6 CD4+ T cel and 4.5 HIV RNA copies/10^6 CD4+ T cel | CA US HIV RNA, Mean [2]: 11.3 HIV RNA copies/10^6 CD4+ T cel | CA US HIV RNA (visit 2B (day 0 + 4 h)): 23.0 HIV RNA copies/10^6 CD4+ T cel and 21.7 HIV RNA copies/10^6 CD4+ T cel and 15.7 HIV RNA copies/10^6 CD4+ T cel and 6.2 HIV RNA copies/10^6 CD4+ T cel and 18.7 HIV RNA copies/10^6 CD4+ T cel and 7.6 HIV RNA copies/10^6 CD4+ T cel | CA US HIV RNA, Mean (visit 2B (day 0 + 4 h)): 15.5 HIV RNA copies/10^6 CD4+ T cel | CA US HIV RNA (visit 3 (day 1)): 16.7 HIV RNA copies/10^6 CD4+ T cel and 33.8 HIV RNA copies/10^6 CD4+ T cel and 9.5 HIV RNA copies/10^6 CD4+ T cel and 7.3 HIV RNA copies/10^6 CD4+ T cel and 29.4 HIV RNA copies/10^6 CD4+ T cel and 10.3 HIV RNA copies/10^6 CD4+ T cel | CA US HIV RNA, Mean (visit 3 (day 1)): 17.8 HIV RNA copies/10^6 CD4+ T cel | CA US HIV RNA (visit 4 (day 3)): 26.4 HIV RNA copies/10^6 CD4+ T cel and 36.2 HIV RNA copies/10^6 CD4+ T cel and 7.5 HIV RNA copies/10^6 CD4+ T cel and 6.8 HIV RNA copies/10^6 CD4+ T cel and 12.1 HIV RNA copies/10^6 CD4+ T cel and 6.6 HIV RNA copies/10^6 CD4+ T cel | CA US HIV RNA, Mean (visit 4 (day 3)): 15.9 HIV RNA copies/10^6 CD4+ T cel | CA US HIV RNA (visit 5A (day 7)): 12.5 HIV RNA copies/10^6 CD4+ T cel and 13.7 HIV RNA copies/10^6 CD4+ T cel and 11.3 HIV RNA copies/10^6 CD4+ T cel and 7.6 HIV RNA copies/10^6 CD4+ T cel and 18.9 HIV RNA copies/10^6 CD4+ T cel and 6.6 HIV RNA copies/10^6 CD4+ T cel | CA US HIV RNA, Mean (visit 5A (day 7)): 11.8 HIV RNA copies/10^6 CD4+ T cel | CA US HIV RNA (visit 5B (day 7 + 4 h)): 33.7 HIV RNA copies/10^6 CD4+ T cel and 43.3 HIV RNA copies/10^6 CD4+ T cel and 24.8 HIV RNA copies/10^6 CD4+ T cel and 24.0 HIV RNA copies/10^6 CD4+ T cel and 45.2 HIV RNA copies/10^6 CD4+ T cel | CA US HIV RNA, Mean (visit 5B (day 7 + 4 h)): 34.2 HIV RNA copies/10^6 CD4+ T cel | CA US HIV RNA (visit 6 (day 10)): 21.3 HIV RNA copies/10^6 CD4+ T cel and 29.0 HIV RNA copies/10^6 CD4+ T cel and 10.4 HIV RNA copies/10^6 CD4+ T cel and 9.1 HIV RNA copies/10^6 CD4+ T cel and 14.4 HIV RNA copies/10^6 CD4+ T cel and 7.9 HIV RNA copies/10^6 CD4+ T cel | CA US HIV RNA, Mean (visit 6 (day 10)): 15.3 HIV RNA copies/10^6 CD4+ T cel | CA US HIV RNA (visit 7A (day 14)): 13.3 HIV RNA copies/10^6 CD4+ T cel and 24.2 HIV RNA copies/10^6 CD4+ T cel and 9.9 HIV RNA copies/10^6 CD4+ T cel and 6.0 HIV RNA copies/10^6 CD4+ T cel and 18.1 HIV RNA copies/10^6 CD4+ T cel | CA US HIV RNA, Mean (visit 7A (day 14)): 14.3 HIV RNA copies/10^6 CD4+ T cel | CA US HIV RNA (visit 7B (day 14 + 4 h)): 36.5 HIV RNA copies/10^6 CD4+ T cel and 51.9 HIV RNA copies/10^6 CD4+ T cel and 21.0 HIV RNA copies/10^6 CD4+ T cel and 76.0 HIV RNA copies/10^6 CD4+ T cel and 20.5 HIV RNA copies/10^6 CD4+ T cel | CA US HIV RNA, Mean (visit 7B (day 14 + 4 h)): 41.2 HIV RNA copies/10^6 CD4+ T cel | CA US HIV RNA (visit 8 (day 17)): 17.4 HIV RNA copies/10^6 CD4+ T cel and 17.8 HIV RNA copies/10^6 CD4+ T cel and 4.2 HIV RNA copies/10^6 CD4+ T cel and 14.9 HIV RNA copies/10^6 CD4+ T cel and 8.9 HIV RNA copies/10^6 CD4+ T cel | CA US HIV RNA, Mean (visit 8 (day 17)): 12.7 HIV RNA copies/10^6 CD4+ T cel | CA US HIV RNA (visit 9 (day 21)): 16.4 HIV RNA copies/10^6 CD4+ T cel and 19.0 HIV RNA copies/10^6 CD4+ T cel and 4.6 HIV RNA copies/10^6 CD4+ T cel and 5.2 HIV RNA copies/10^6 CD4+ T cel and 11.1 HIV RNA copies/10^6 CD4+ T cel | CA US HIV RNA, Mean (visit 9 (day 21)): 11.3 HIV RNA copies/10^6 CD4+ T cel | CA US HIV RNA (visit 10 (day 56)): 17.9 HIV RNA copies/10^6 CD4+ T cel and 25.0 HIV RNA copies/10^6 CD4+ T cel and 7.6 HIV RNA copies/10^6 CD4+ T cel and 6.2 HIV RNA copies/10^6 CD4+ T cel and 16.8 HIV RNA copies/10^6 CD4+ T cel and 9.3 HIV RNA copies/10^6 CD4+ T cel | CA US HIV RNA, Mean (visit 10 (day 56)): 13.8 HIV RNA copies/10^6 CD4+ T cel | CA US HIV RNA (visit 11 (day 84)): 22.0 HIV RNA copies/10^6 CD4+ T cel and 32.7 HIV RNA copies/10^6 CD4+ T cel and 11.2 HIV RNA copies/10^6 CD4+ T cel and 8.0 HIV RNA copies/10^6 CD4+ T cel and 35.1 HIV RNA copies/10^6 CD4+ T cel and 12.2 HIV RNA copies/10^6 CD4+ T cel | CA US HIV RNA, Mean (visit 11 (day 84)): 20.2 HIV RNA copies/10^6 CD4+ T cel
